How the values were obtained:
[1] = Antiproliferative activity against human NCI-H1975 cells expressing EGFR mutation incubated for 48 hrs by CCK8 assay
[2] = tested on: NCI-H522; assay: Antiproliferative activity against human NCI-H522 cells expressing wild-type EGFR/ALK incubated for 48 hrs by CCK8 assay
[3] = tested on: NCI-H2228; assay: Antiproliferative activity against human NCI-H2228 cells expressing EML4-ALK fusion incubated for 48 hrs by CCK8 assay
[4] = molecular target: EML4-ALK (Homo sapiens, UniProt Q9UM73); assay: Inhibition of EML4-ALK (unknown origin) phosphorylation by ELISA; type: protein assay
Sequence of EML4-ALK (Q9UM73 whole entry): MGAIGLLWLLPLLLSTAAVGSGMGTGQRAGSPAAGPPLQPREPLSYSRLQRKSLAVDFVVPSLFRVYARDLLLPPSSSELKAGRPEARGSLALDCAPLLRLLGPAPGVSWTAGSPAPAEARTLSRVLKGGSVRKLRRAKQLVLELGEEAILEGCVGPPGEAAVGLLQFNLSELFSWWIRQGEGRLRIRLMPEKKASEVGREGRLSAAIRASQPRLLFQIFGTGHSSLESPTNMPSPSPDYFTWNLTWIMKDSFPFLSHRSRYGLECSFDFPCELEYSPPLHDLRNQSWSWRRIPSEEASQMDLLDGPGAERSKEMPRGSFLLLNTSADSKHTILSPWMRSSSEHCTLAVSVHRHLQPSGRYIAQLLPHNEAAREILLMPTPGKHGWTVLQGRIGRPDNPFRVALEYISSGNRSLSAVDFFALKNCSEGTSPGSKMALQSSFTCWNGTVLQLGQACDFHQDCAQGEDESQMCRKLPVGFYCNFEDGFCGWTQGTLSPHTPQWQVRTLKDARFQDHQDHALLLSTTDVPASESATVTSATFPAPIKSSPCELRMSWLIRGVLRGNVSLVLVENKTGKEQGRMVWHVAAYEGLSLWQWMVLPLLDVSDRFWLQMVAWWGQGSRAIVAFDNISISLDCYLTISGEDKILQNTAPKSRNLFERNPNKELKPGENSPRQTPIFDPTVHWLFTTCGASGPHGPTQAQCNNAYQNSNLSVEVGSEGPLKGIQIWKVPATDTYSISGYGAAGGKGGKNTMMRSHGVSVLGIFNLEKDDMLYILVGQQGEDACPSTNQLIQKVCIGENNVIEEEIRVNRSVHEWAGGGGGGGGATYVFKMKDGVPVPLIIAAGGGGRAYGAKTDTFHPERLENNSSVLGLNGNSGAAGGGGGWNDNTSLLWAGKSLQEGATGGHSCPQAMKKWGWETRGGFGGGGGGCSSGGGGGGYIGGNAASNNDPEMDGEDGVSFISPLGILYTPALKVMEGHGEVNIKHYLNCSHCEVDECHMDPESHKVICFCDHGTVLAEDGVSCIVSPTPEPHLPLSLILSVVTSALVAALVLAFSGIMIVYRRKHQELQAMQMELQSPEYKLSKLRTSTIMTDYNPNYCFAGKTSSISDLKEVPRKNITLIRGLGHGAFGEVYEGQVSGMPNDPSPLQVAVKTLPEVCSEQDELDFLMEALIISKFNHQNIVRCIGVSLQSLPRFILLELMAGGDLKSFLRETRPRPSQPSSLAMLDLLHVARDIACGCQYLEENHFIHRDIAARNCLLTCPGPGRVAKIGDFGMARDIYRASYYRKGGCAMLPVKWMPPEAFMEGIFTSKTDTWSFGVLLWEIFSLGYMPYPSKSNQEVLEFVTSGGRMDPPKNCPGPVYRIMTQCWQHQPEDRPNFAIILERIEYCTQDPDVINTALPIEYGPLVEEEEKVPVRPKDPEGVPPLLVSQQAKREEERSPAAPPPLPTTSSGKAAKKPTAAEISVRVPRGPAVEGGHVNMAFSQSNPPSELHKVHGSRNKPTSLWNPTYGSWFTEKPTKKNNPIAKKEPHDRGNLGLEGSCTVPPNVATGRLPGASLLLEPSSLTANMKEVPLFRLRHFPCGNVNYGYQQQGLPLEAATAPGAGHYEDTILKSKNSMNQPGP
Sequence of EML4-ALK (Q9HC35 whole entry, further chain): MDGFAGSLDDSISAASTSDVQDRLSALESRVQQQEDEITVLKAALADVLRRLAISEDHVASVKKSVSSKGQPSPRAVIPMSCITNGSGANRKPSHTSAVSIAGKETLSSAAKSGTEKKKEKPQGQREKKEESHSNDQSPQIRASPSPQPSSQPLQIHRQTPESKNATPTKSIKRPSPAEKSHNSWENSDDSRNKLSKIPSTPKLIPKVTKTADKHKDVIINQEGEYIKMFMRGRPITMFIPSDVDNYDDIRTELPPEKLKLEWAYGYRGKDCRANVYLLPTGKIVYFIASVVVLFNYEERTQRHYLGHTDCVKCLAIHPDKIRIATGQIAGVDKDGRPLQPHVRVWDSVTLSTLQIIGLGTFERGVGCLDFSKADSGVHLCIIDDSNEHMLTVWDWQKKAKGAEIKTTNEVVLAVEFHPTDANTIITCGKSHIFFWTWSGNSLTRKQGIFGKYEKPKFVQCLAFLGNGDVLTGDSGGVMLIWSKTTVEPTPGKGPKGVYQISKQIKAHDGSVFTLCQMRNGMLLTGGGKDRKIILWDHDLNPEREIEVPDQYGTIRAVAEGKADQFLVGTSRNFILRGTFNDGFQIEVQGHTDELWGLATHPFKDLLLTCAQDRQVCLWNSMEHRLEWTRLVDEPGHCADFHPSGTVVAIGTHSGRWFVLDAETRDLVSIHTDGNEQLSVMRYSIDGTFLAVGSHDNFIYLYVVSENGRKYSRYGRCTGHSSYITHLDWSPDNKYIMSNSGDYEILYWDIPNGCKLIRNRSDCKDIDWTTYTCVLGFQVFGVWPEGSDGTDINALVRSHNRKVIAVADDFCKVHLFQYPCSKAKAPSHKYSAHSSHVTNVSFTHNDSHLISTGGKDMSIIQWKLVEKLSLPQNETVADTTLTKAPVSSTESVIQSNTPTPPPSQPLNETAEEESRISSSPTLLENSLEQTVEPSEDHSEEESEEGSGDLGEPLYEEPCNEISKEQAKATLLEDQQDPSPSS

[5] = tested on: PC-9; assay: Antiproliferative activity against human PC-9 cells expressing EGFR mutation incubated for 48 hrs by CCK8 assay
[6] = Metabolic stability in human liver microsomes assessed as clearance at 1 uM measured for 60 mins by LC-MS/MS analysis; type: ADME, Microsome; settings: read-out: CLH
[7] = Metabolic stability in human liver microsomes assessed as half life at 1 uM measured for 60 mins by LC-MS/MS analysis; type: ADME, Microsome
[8] = tested on: BaF3; assay: Antiproliferative activity against mouse BaF3 cells expressing EML4-ALK fusion incubated for 48 hrs by CCK8 assay
[9] = tested on: NCI-H1975; assay: Antitumor activity against human NCI-H1975 cells xenografted in BALB/c-nu mouse at 30 mg/kg, po administered daily orally for 7 days relative to control; type: functional; settings: time 7 day; for inhibition in vivo at 30 mg/kg: Mus musculus, NCI-H1975, 168 h, read-out: TGI
[10] = tested on: NCI-H1975; assay: Antitumor activity against human NCI-H1975 cells xenografted in BALB/c-nu mouse at 30 mg/kg, po administered daily orally for 21 days relative to control; type: functional; settings: time 21 day
[11] = tested on: NCI-H1975; assay: Antitumor activity against human NCI-H1975 cells xenografted in BALB/c-nu mouse at 5 mg/kg, po administered daily orally for 21 days relative to control; type: functional; settings: time 21 day, 5 mg/kg, 504 h
[12] = tested on: NCI-H1975; assay: Antitumor activity against human NCI-H1975 cells xenografted in BALB/c-nu mouse at 15 mg/kg, po administered daily orally for 21 days relative to control; type: functional; settings: time 21 day, 15 mg/kg, 504 h
[13] = tested on: NCI-H1975; assay: Induction of apoptosis in human NCI-H1975 cells assessed as viable cells at 5 nM incubated for 48 hrs by allo-Phycocyanin-Annexin V staining based flow cytometry (reference value: 93.6 %); type: functional
[14] = tested on: NCI-H1975; assay: Induction of apoptosis in human NCI-H1975 cells assessed as early apoptotic cells at 5 nM incubated for 48 hrs by allo-Phycocyanin-Annexin V staining based flow cytometry (reference value: 2.27 %); type: functional
[15] = tested on: NCI-H1975; assay: Induction of cell cycle arrest in human NCI-H1975 cells assessed as accumulation at G2/M phase at 5 nM incubated for 24 hrs by PI/RNase staining based flow cytometry (reference value: 32.71 %); type: functional
[16] = tested on: NCI-H1975; assay: Induction of apoptosis in human NCI-H1975 cells assessed as late apoptotic cells at 5 nM incubated for 48 hrs by allo-Phycocyanin-Annexin V staining based flow cytometry (reference value: 4.08 %); type: functional
[17] = tested on: NCI-H1975; assay: Induction of cell cycle arrest in human NCI-H1975 cells assessed as accumulation at G0/G1 phase at 5 nM incubated for 24 hrs by PI/RNase staining based flow cytometry (reference value: 50.19 %); type: functional
[18] = tested on: NCI-H1975; assay: Induction of apoptosis in human NCI-H1975 cells assessed as necrotic cells at 5 nM incubated for 48 hrs by allo-Phycocyanin-Annexin V staining based flow cytometry (reference value: 0.031 %); type: functional
[19] = tested on: NCI-H1975; assay: Induction of cell cycle arrest in human NCI-H1975 cells assessed as accumulation at S phase at 5 nM incubated for 24 hrs by PI/RNase staining based flow cytometry (reference value: 17.1 %); type: functional

Row | SMILES | IC50 ([1]; Homo sapiens, NCI-H1975, 48 h) | IC50 ([2]; Homo sapiens, NCI-H522, 48 h) | IC50 ([3]; Homo sapiens, NCI-H2228, 48 h) | IC50 [4] | IC50 ([5]; Homo sapiens, PC-9, 48 h) | microsomal CLint at 1 µM [6] | half-life at 1 µM [7] | IC50 ([8]; Mus musculus, BaF3, 48 h) | also measured
1 | C=CC(=O)Nc1cc(Nc2ncc(Cl)c(Nc3ccc(Cl)cc3[S+]([O-])C(C)C)n2)c(OC)cc1N(C)CCN(C)C (stereo not given) | 3.77 nM | 1380 nM | 18.9 nM | 6.81 nM | 2.53 nM | 132 µL/min/mg | 26.3 min | 2.37 nM | –
2 | [2H]C([2H])([2H])C([2H])([2H])[S+]([O-])c1cc(Cl)ccc1Nc1nc(Nc2cc(NC(=O)C=C)c(N(C)CCN(C)C)cc2OC)ncc1Cl (stereo not given) | 3.88 nM | 2710 nM | 32.4 nM | 8.81 nM | 3.91 nM | 68.7 µL/min/mg | 50.5 min | 3.61 nM | –
3 | [2H]C([2H])([2H])C([2H])([S+]([O-])c1ccccc1Nc1nc(Nc2cc(NC(=O)C=C)c(N(C)CCN(C)C)cc2OC)ncc1Cl)C([2H])([2H])[2H] (stereo not given) | 9.26 nM | 2730 nM | 12.5 nM | 10 nM | 45.9 nM | 109 µL/min/mg | 31.9 min | 14.4 nM | –
4 | C=CC(=O)Nc1cc(Nc2ncc(Cl)c(Nc3cccc(F)c3[S+]([O-])C(C)C)n2)c(OC)cc1N(C)CCN(C)C (stereo not given) | 7.59 nM | 2490 nM | 23.8 nM | 5.47 nM | 2.81 nM | 107 µL/min/mg | 32.3 min | 2.97 nM | –
5 | [2H]C([2H])([2H])C([2H])([2H])[S+]([O-])c1c(F)cccc1Nc1nc(Nc2cc(NC(=O)C=C)c(N(C)CCN(C)C)cc2OC)ncc1Cl (stereo not given) | 9.56 nM | 5330 nM | 58.2 nM | 5.59 nM | 5.13 nM | 27.7 µL/min/mg | 125 min | 7.74 nM | inhibition in vivo at 30 mg/kg [9]: 85.9%
6 | C=CC(=O)Nc1cc(Nc2ncc(Cl)c(Nc3ccccc3[S+]([O-])CC)n2)c(OC)cc1N(C)CCN(C)C (stereo not given) | 4.3 nM | – | 43.1 nM | 4.69 nM | 6.1 nM | – | – | 3.6 nM | –
7 | C=CC(=O)Nc1cc(Nc2ncc(Cl)c(Nc3cccc(F)c3[S+]([O-])CC)n2)c(OC)cc1N(C)CCN(C)C (stereo not given) | 2.79 nM | 7860 nM | 66.8 nM | 4.47 nM | 3.14 nM | 15.5 µL/min/mg | 223 min | 4.03 nM | inhibition in vivo at 30 mg/kg [9]: 75.3%
8 | C=CC(=O)Nc1cc(Nc2ncc(Cl)c(Nc3cccc(Cl)c3[S+]([O-])C(C)C)n2)c(OC)cc1N(C)CCN(C)C (stereo not given) | 7.55 nM | 2380 nM | 22.5 nM | 7.39 nM | 4.05 nM | 92 µL/min/mg | 37.7 min | 9.31 nM | –
9 | C=CC(=O)Nc1cc(Nc2ncc(Cl)c(Nc3cccc(Cl)c3[S+]([O-])CC)n2)c(OC)cc1N(C)CCN(C)C (stereo not given) | 3.76 nM | 2420 nM | 54.2 nM | 7.32 nM | < 0.001 nM | 66.7 µL/min/mg | 52 min | 36 nM | –
10 | [2H]C([2H])([2H])C([2H])([S+]([O-])c1c(F)cccc1Nc1nc(Nc2cc(NC(=O)C=C)c(N(C)CCN(C)C)cc2OC)ncc1Cl)C([2H])([2H])[2H] (stereo not given) | 17.2 nM | 2160 nM | 23.7 nM | 2.09 nM | 5.56 nM | 70.5 µL/min/mg | 49.1 min | 16.1 nM | –
11 | [2H]C([2H])([2H])C([2H])([2H])[S+]([O-])c1ccccc1Nc1nc(Nc2cc(NC(=O)C=C)c(N(C)CCN(C)C)cc2OC)ncc1Cl (racemic) | – | – | 29.2 nM | 3.72 nM | – | 21.4 µL/min/mg | 162 min | – | IC50 ([1]; nci-h1975): 2.33 nM; IC50 ([2]; nci-h522): 4630 nM; inhibition in vivo at 30 mg/kg [9]: 96.8%; IC50 ([5]; pc-9): 6.32 nM; IC50 ([8]; baf3): 3.53 nM
12 | [2H]C([2H])([2H])C([2H])([2H])[S+]([O-])c1ccccc1Nc1nc(Nc2cc(NC(=O)C=C)c(N(C)CCN(C)C)cc2OC)ncc1Cl (single isomer, unassigned; (+)) | – | – | – | – | – | – | – | – | IC50 ([1]; nci-h1975): 5.36 nM; IC50 ([2]; nci-h522): 6330 nM; TGI ([10]; 30 mg/kg, 504 h): 91.87%; IC50 ([3]; nci-h2228): 37.6 nM; TGI [11]: 72.01%; IC50 ([5]; pc-9): 6.88 nM; TGI [12]: 86.97%; IC50 ([8]; baf3): 18.3 nM
13 | COc1cc(N2CCC(N3CCN(C)CC3)CC2)ccc1Nc1ncc(Cl)c(Nc2ccccc2P(C)(C)=O)n1 [BRIGATINIB] | 484 nM | 4610 nM | 28.9 nM | – | 983 nM | – | – | 7.46 nM | –
14 | Cc1cc(Nc2ncc(Cl)c(Nc3ccccc3S(=O)(=O)C(C)C)n2)c(OC(C)C)cc1C1CCNCC1 [CERITINIB] | 2110 nM | 2760 nM | 18.3 nM | – | 2150 nM | – | – | 10.1 nM | –
15 | C=CC(=O)Nc1cc(Nc2nccc(-c3cn(C)c4ccccc34)n2)c(OC)cc1N(C)CCN(C)C [OSIMERTINIB] | 4.16 nM | 2320 nM | 1840 nM | – | 6.43 nM | – | – | 327 nM | Activity [13]: 71.1%; Activity [14]: 12.2%; TGI [10]: 95.05%; Activity [15]: 27.24%; TGI [9]: 94.73%; Activity [16]: 16.7%; Activity [17]: 65.8%; Activity [18]: 0.032%; Activity [19]: 6.87%
